Legend:
Assay in all cases: Test B preemergence/postemergence greenhouse plant response rating 0 to 10
[1] = test system: giant foxtail; type: in vivo, Setaria faberii; conditions: 0 to 10 scale
Procedure, shortened: (§1)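 Planted seeds are treated preemergence with compound dissolved in a non-phytotoxic solvent, while postemergence applications go onto plants of two to eighteen cm. Plants stay in the greenhouse twelve to sixteen days and are then rated visually relative to controls.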

[2] = test system: purple nutsedge; type: in vivo, Cyperus rotundus; conditions: 0 to 10 scale
Procedure, shortened: as §1

[3] = test system: crabgrass; type: in vivo, Digitaria spp.; conditions: for Plant response rating, Crabgrass: 0 to 10 scale
Procedure, shortened: as §1

[4] = test system: lambsquarters; type: in vivo, Chenopodium album; conditions: 0 to 10 scale
Procedure, shortened: as §1

[5] = test system: soybean; type: in vivo, Glycine max; conditions: 0 to 10 scale
Procedure, shortened: as §1

[6] = test system: barley; type: in vivo, Hordeum vulgare; conditions: for Plant response rating, Barley: 0 to 10 scale
Procedure, shortened: as §1

[7] = test system: rape; type: in vivo, Brassica napus; conditions: 0 to 10 scale
Procedure, shortened: as §1

[8] = test system: velvetleaf; type: in vivo, Abutilon theophrasti; conditions: 0 to 10 scale
Procedure, shortened: as §1

[9] = test system: cheatgrass; type: in vivo, Bromus secalinus; conditions: for Plant response rating, Cheatgrass: 0 to 10 scale
Procedure, shortened: as §1

[10] = test system: blackgrass; type: in vivo, Alopecurus myosuroides; conditions: for Plant response rating, Blackgrass: 0 to 10 scale
Procedure, shortened: as §1

## CCCOc1cc(-c2nn3c(c2Cl)CCCC3)c(F)cc1Cl [Compound 23]
[1]; POSTEMERGENCE, Rate 50 g/ha
  Plant response rating, Giant foxtail: 5
[1]; POSTEMERGENCE, Rate 200 g/ha
  Plant response rating, Giant foxtail: 7
[1]; PREEMERGENCE, Rate 50 g/ha
  Plant response rating, Giant foxtail: 6
[1]; Rate 200 g/ha, PREEMERGENCE
  Plant response rating, Giant foxtail: 9
[2]; POSTEMERGENCE, Rate 50 g/ha
  Plant response rating, Nutsedge: 2
[2]; POSTEMERGENCE, Rate 200 g/ha
  Plant response rating, Nutsedge: 3
[2]; PREEMERGENCE, Rate 50 g/ha
  Plant response rating, Nutsedge: 0
[2]; Rate 200 g/ha, PREEMERGENCE
  Plant response rating, Nutsedge: 0
[3]; POSTEMERGENCE, Rate 50 g/ha
  Plant response rating (0 to 10 scale), Crabgrass: 2
[3]; POSTEMERGENCE, Rate 200 g/ha
  Plant response rating, Crabgrass: 6
[3]; PREEMERGENCE, Rate 50 g/ha
  Plant response rating, Crabgrass: 2
[3]; Rate 200 g/ha, PREEMERGENCE
  Plant response rating, Crabgrass: 9
[4]; POSTEMERGENCE, Rate 50 g/ha
  Plant response rating, Lambsquarter: 10
[4]; POSTEMERGENCE, Rate 200 g/ha
  Plant response rating, Lambsquarter: 10
[4]; PREEMERGENCE, Rate 50 g/ha
  Plant response rating, Lambsquarter: 10
[4]; Rate 200 g/ha, PREEMERGENCE
  Plant response rating, Lambsquarter: 10
[5]; POSTEMERGENCE, Rate 50 g/ha
  Plant response rating, Soybean: 8
[5]; POSTEMERGENCE, Rate 200 g/ha
  Plant response rating, Soybean: 9
[5]; PREEMERGENCE, Rate 50 g/ha
  Plant response rating, Soybean: 1
[5]; Rate 200 g/ha, PREEMERGENCE
  Plant response rating, Soybean: 7
[6]; POSTEMERGENCE, Rate 50 g/ha
  Plant response rating (0 to 10 scale), Barley: 3
[6]; POSTEMERGENCE, Rate 200 g/ha
  Plant response rating, Barley: 3
[6]; PREEMERGENCE, Rate 50 g/ha
  Plant response rating, Barley: 0
[6]; Rate 200 g/ha, PREEMERGENCE
  Plant response rating, Barley: 0
[7]; POSTEMERGENCE, Rate 50 g/ha
  Plant response rating, Rape: 6
[7]; POSTEMERGENCE, Rate 200 g/ha
  Plant response rating, Rape: 10
[7]; PREEMERGENCE, Rate 50 g/ha
  Plant response rating, Rape: 3
[7]; Rate 200 g/ha, PREEMERGENCE
  Plant response rating, Rape: 6
[8]; POSTEMERGENCE, Rate 50 g/ha
  Plant response rating, Velvetleaf: 9
[8]; POSTEMERGENCE, Rate 200 g/ha
  Plant response rating, Velvetleaf: 10
[8]; PREEMERGENCE, Rate 50 g/ha
  Plant response rating, Velvetleaf: 1
[8]; Rate 200 g/ha, PREEMERGENCE
  Plant response rating, Velvetleaf: 10
[9]; POSTEMERGENCE, Rate 50 g/ha
  Plant response rating (0 to 10 scale), Cheatgrass: 6
[9]; POSTEMERGENCE, Rate 200 g/ha
  Plant response rating, Cheatgrass: 8
[9]; PREEMERGENCE, Rate 50 g/ha
  Plant response rating, Cheatgrass: 4
[9]; Rate 200 g/ha, PREEMERGENCE
  Plant response rating, Cheatgrass: 6
[10]; POSTEMERGENCE, Rate 50 g/ha
  Plant response rating (0 to 10 scale), Blackgrass: 6
[10]; POSTEMERGENCE, Rate 200 g/ha
  Plant response rating, Blackgrass: 6
[10]; PREEMERGENCE, Rate 50 g/ha
  Plant response rating, Blackgrass: 6
[10]; Rate 200 g/ha, PREEMERGENCE
  Plant response rating, Blackgrass: 7

## Fc1cc(Cl)c(OC2CCCC2)cc1-c1nn2c(c1Cl)CCCC2 [Compound 24]
[1]; POSTEMERGENCE, Rate 50 g/ha
  Plant response rating, Giant foxtail: 4
[1]; POSTEMERGENCE, Rate 200 g/ha
  Plant response rating, Giant foxtail: 5
[1]; PREEMERGENCE, Rate 50 g/ha
  Plant response rating, Giant foxtail: 3
[1]; Rate 200 g/ha, PREEMERGENCE
  Plant response rating, Giant foxtail: 8
[2]; POSTEMERGENCE, Rate 50 g/ha
  Plant response rating, Nutsedge: 3
[2]; POSTEMERGENCE, Rate 200 g/ha
  Plant response rating, Nutsedge: 4
[2]; PREEMERGENCE, Rate 50 g/ha
  Plant response rating, Nutsedge: 0
[2]; Rate 200 g/ha, PREEMERGENCE
  Plant response rating, Nutsedge: 0
[3]; POSTEMERGENCE, Rate 50 g/ha
  Plant response rating (0 to 10 scale), Crabgrass: 5
[3]; POSTEMERGENCE, Rate 200 g/ha
  Plant response rating, Crabgrass: 5
[3]; PREEMERGENCE, Rate 50 g/ha
  Plant response rating, Crabgrass: 0
[3]; Rate 200 g/ha, PREEMERGENCE
  Plant response rating, Crabgrass: 7
[4]; POSTEMERGENCE, Rate 50 g/ha
  Plant response rating, Lambsquarter: 9
[4]; POSTEMERGENCE, Rate 200 g/ha
  Plant response rating, Lambsquarter: 10
[4]; PREEMERGENCE, Rate 50 g/ha
  Plant response rating, Lambsquarter: 9
[4]; Rate 200 g/ha, PREEMERGENCE
  Plant response rating, Lambsquarter: 10
[5]; POSTEMERGENCE, Rate 50 g/ha
  Plant response rating, Soybean: 6
[5]; POSTEMERGENCE, Rate 200 g/ha
  Plant response rating, Soybean: 8
[5]; PREEMERGENCE, Rate 50 g/ha
  Plant response rating, Soybean: 0
[5]; Rate 200 g/ha, PREEMERGENCE
  Plant response rating, Soybean: 2
[6]; POSTEMERGENCE, Rate 50 g/ha
  Plant response rating (0 to 10 scale), Barley: 4
[6]; POSTEMERGENCE, Rate 200 g/ha
  Plant response rating, Barley: 4
[6]; PREEMERGENCE, Rate 50 g/ha
  Plant response rating, Barley: 0
[6]; Rate 200 g/ha, PREEMERGENCE
  Plant response rating, Barley: 0
[7]; POSTEMERGENCE, Rate 50 g/ha
  Plant response rating, Rape: 5
[7]; POSTEMERGENCE, Rate 200 g/ha
  Plant response rating, Rape: 7
[7]; PREEMERGENCE, Rate 50 g/ha
  Plant response rating, Rape: 2
[7]; Rate 200 g/ha, PREEMERGENCE
  Plant response rating, Rape: 8
[8]; POSTEMERGENCE, Rate 50 g/ha
  Plant response rating, Velvetleaf: 10
[8]; POSTEMERGENCE, Rate 200 g/ha
  Plant response rating, Velvetleaf: 10
[8]; PREEMERGENCE, Rate 50 g/ha
  Plant response rating, Velvetleaf: 1
[8]; Rate 200 g/ha, PREEMERGENCE
  Plant response rating, Velvetleaf: 9
[9]; POSTEMERGENCE, Rate 50 g/ha
  Plant response rating (0 to 10 scale), Cheatgrass: 3
[9]; POSTEMERGENCE, Rate 200 g/ha
  Plant response rating, Cheatgrass: 5
[9]; PREEMERGENCE, Rate 50 g/ha
  Plant response rating, Cheatgrass: 0
[9]; Rate 200 g/ha, PREEMERGENCE
  Plant response rating, Cheatgrass: 4
[10]; POSTEMERGENCE, Rate 50 g/ha
  Plant response rating (0 to 10 scale), Blackgrass: 2
[10]; POSTEMERGENCE, Rate 200 g/ha
  Plant response rating, Blackgrass: 6
[10]; PREEMERGENCE, Rate 50 g/ha
  Plant response rating, Blackgrass: 2
[10]; Rate 200 g/ha, PREEMERGENCE
  Plant response rating, Blackgrass: 8
